{
  "source": "patent US20220095615A1",
  "about": "“NEMATODE DETERRENT COMPOSITIONS” (SALK INSTITUTE FOR BIOLOGICAL STUDIES, priority 2018, published 2022)",
  "key": {"[1]": {"system": "C. elegans", "test": "Chemotaxis assay for volatile components", "type": "in vivo, Caenorhabditis elegans", "conditions": "Benzaldehyde 1:200, 2-nonanone undiluted, 60 min, FIG. 8D", "procedure": "Chemotaxis assays were performed on 2% agar square (10 cm) plates containing 5 mM potassium phosphate (pH 6), 1 mM CaCl2, and 1 mM MgSO4. Animals were washed three times in M9 and once in chemotaxis buffer (5 mM potassium phosphate (pH 6), 1 mM CaCl2, and 1 mM MgSO4) and then placed in the middle of the plate (FIG. 8c). Two spots of the collected nematode secretions and two control M9 spots (all 1 μl) were added to opposite sides of the plate, generating gradients of any volatile components in the nematode secretions. Animals were allowed to explore these gradients for 1 h, after which they were counted and the chemotaxis index calculated (FIG. 8d). Benzaldehyde (1:200) and 2-nonanone (undiluted) were used as control attractants and repellents, respectively^25. Nine or more assays were performed on at least three different days. Two-tailed unpaired t-tests were used to compare C. elegans responses to different secretions, and the Bonferroni correction was used to adjust for multiple comparisons."}, "[2]": {"system": "C. elegans", "conditions": "literature reference; cited from earlier work"}, "[3]": {"system": "C. elegans", "test": "Single animal avoidance assay (avoidance index)", "type": "in vivo, Caenorhabditis elegans", "conditions": "for activity of synthetic sulfolipids in the avoidance assay: synthetic compounds, FIG. 10a", "procedure": "Adult C. elegans were exposed to a small volume of a test compound (0.05 μl) near the head of the animal. Upon sensing a repellent, animals initiate a reversal followed by an omega bend. Positive responses to a test compound were scored only if they occurred within 4 s. Results are shown as the avoidance index, which is the ratio of number of positive responses to the total number of trials. Each animal is tested thrice and data is presented as average of the animals tested on at least 3 days (FIGS. 1-4 and FIGS. 8-13). For Data in FIG. 18b, animals were pre-treated with various drugs at 100 μM for 30 min and then their responses to predator cue were analyzed. Each assay was performed in triplicate (5 animals per condition) and on at least 3 different days […]. For Data shown in FIG. 4, animals were pre-treated with 1 mM Sertraline (Sigma) or M9 control for 3 min before being tested for their responses in the avoidance assay. We also performed additional controls to test whether an animal's response to the three repellent trials were independent.\nTwo-tailed unpaired t-tests were used to compare different strains, genotypes, and conditions, and the Bonferroni correction was used to adjust for multiple comparisons. Avoidance indices of all strains tested and controls are shown in Supplementary Table S7 of Liu et al., Nature Communications 9: 1128 (2018)).\nAdult nematodes were exposed to a small volume of a test compound (0.05 μl) near the head of the animal. Upon sensing a repellent, animals initiate a reversal followed by an omega bend. Positive responses to a test compound were scored only if they occurred within 4 s. Results are shown as the avoidance index, which is the ratio of number of positive responses to the total number of trials. Each animal is tested thrice and data is presented as average of the animals tested on at least 3 days."}, "[4]": {"system": "C. elegans", "test": "Egg-laying assay", "type": "in vivo, Caenorhabditis elegans", "conditions": "predator cue with sertraline (1 mM) for 30 min, egg-laying monitored 60 min after removal, FIG. 4f", "procedure": "Synchronized Day 1 adults were treated with M9 control buffer or concentrated predator cue for 30 min. These animals were transferred to a 2-day lawn of 100 μl OP50 bacteria (OD600=0.5) and allowed to lay eggs. Eggs were counted at the time intervals shown. In each condition and genotype, at least 35 animals were analyzed. Average number of eggs and s.e.m. are presented with two-tailed unpaired t-tests with Bonferroni correction for statistical analysis. To test the effect of sulfolipids on egg-laying behavior, these compounds were dissolved in DMSO and further diluted in M9 to obtain the concentrations indicated. Sertraline effects were analyzed by exposing animals to predator cue with or without sertraline (1 mM) for 30 min."}},
  "note": "Where a name gives a salt, the structure may show the parent alone.",
  "data": [
    {"smiles": "O=Cc1ccccc1", "note": "[Benzaldehyde]", "values": [
      {"measurement": "chemotaxis response to control attractant and repellent", "setting": "[1]", "value": "strong responses"}
    ]},
    {"smiles": "CCCCCCCCCCCCOS(=O)(=O)[O-].[Na+]", "note": "[SDS, sodium dodecyl sulfate]", "values": [
      {"measurement": "C. elegans avoidance cue potency", "setting": "[2]", "value": "potent"}
    ]},
    {"smiles": "CCCCCCCC(C)=O", "note": "[Sulfolipid 2-nonanone, 2-nonanone]", "values": [
      {"measurement": "chemotaxis response to control attractant and repellent", "setting": "[1]", "value": "strong responses"}
    ]},
    {"smiles": "CN[C@H]1CC[C@@H](c2ccc(Cl)c(Cl)c2)c2ccccc21", "note": "[sertraline]", "values": [
      {"measurement": "duration of the drug effects (decay of the sertraline effect)", "setting": "[3]; predator cue, FIG. 13C legend", "value": "about 30 minutes"},
      {"measurement": "concentration dependence of suppression of avoidance behavior", "setting": "[3]; predator cue, FIG. 13b", "value": "dependent on drug concentration"},
      {"measurement": "duration of suppression of avoidance after the drug was removed", "setting": "[3]; predator cue, FIG. 13c", "value": "at least 30 min"},
      {"measurement": "sertraline modulation of avoidance in eat-4 mutants", "setting": "[3]; predator cue, eat-4 (vesicular glutamate transporter) mutants, FIG. 4c", "value": "significant sertraline-induced modulation of avoidance behavior"},
      {"measurement": "sertraline effect on behavior of tax-4 or ocr-2 mutants", "setting": "[3]; predator cue, tax-4 or ocr-2 mutants, FIG. 4b", "value": "no detectable effect"},
      {"measurement": "sertraline attenuation in unc-25 mutants", "setting": "[3]; predator cue, unc-25 (glutamic acid decarboxylase) mutants, FIG. 4c", "value": "defective in sertraline attenuation"},
      {"measurement": "sertraline effect on avoidance to predator cue", "setting": "[3]; wild-type, pre-treated with sertraline (1 mM), FIG. 4a", "value": "attenuated avoidance"},
      {"measurement": "sertraline effect on avoidance responses to fructose", "setting": "[3]; wild-type, pre-treated with sertraline, FIG. 4a", "value": "attenuated avoidance responses"},
      {"measurement": "sertraline effect on avoidance to purified sulfolipids", "setting": "[3]; wild-type, pre-treated with sertraline, FIG. 13a", "value": "attenuated avoidance"},
      {"measurement": "sertraline effect on predator cue-induced egg-laying response", "setting": "[4]", "value": "reduced the longer-lasting egg-laying response"}
    ]},
    {"smiles": "CC(C)CCC(CCCCCCCCCO)OS(=O)(=O)O", "note": "(stereo not drawn) [sufal #1, 14-hydroxy-2-methyltetradecan-5-yl Hydrogen Sulfate]", "values": [
      {"measurement": "activity of synthetic sulfolipids in the avoidance assay", "setting": "[3]", "value": "accounted for most of the isolated activity"}
    ]},
    {"smiles": "CC(C)CCCC(CCCCCCCCO)OS(=O)(=O)O", "note": "(stereo not drawn) [sufal #2, 14-hydroxy-2-methyltetradecan-6-yl Hydrogen Sulfate]", "values": [
      {"measurement": "activity of synthetic sulfolipids in the avoidance assay", "setting": "[3]", "value": "accounted for most of the isolated activity"}
    ]}
  ]
}
